Assays:
[1] = test system: SCPJU; experiment: Example V (second) postemergence foliar-applied ternary mixtures, greenhouse, direct seeded rice weeds; type: in vivo, Schoenoplectus juncoides (Roxb.) Palla
From the text: Seeds or nutlets of the desired test plant species were planted in a soil matrix prepared by mixing a sandy loam or loam soil (e.g., 32 percent silt, 23 percent clay, and 45 percent sand, with a pH of about 6.5 and an organic matter content of about 1.9 percent) and calcareous grit in an 80 to 20 ratio. The soil matrix was contained in plastic pots with a volume of 1 quart and a surface area of 83.6 square centimeters (cm^2). When required to ensure good germination and healthy plants, a fungicide treatment and/or other chemical or physical treatment was applied. The plants were grown for 8-22 days in a greenhouse with an approximate 14 hr. photoperiod which was maintained at about 29° C. during the day and 26° C. during the night. Nutrients (Peters Excel® 15-5-15 5-Ca 2-Mg and iron chelate) were applied in the irrigation solution as needed and water was added on a regular basis. Supplemental lighting was provided with overhead metal halide 1000-Watt lamps as necessary. The plants were employed for testing when they reached the first through fourth true leaf stage.
(§1) Treatments consisted of the benzyl ester of 4-amino-3-chloro-5-fluoro-6-(4-chloro-2-fluoro-3-methoxy-phenyl)pyridine-2-carboxylic acid (Compound A), formulated as an SC (suspension concentrate), an ACCase inhibitor, and a third herbicidal component, each applied alone and in ternary combination. Forms of compound A were applied on an acid equivalent basis.
The ACCase inhibitor component was applied on an active ingredient basis and included cyhalofop-R-butyl formulated as Clincher® SF, fenoxaprop-p-ethyl formulated as RiceStar® HT, and profoxydim formulated as Aura® 20EC. Other herbicidal components were applied on an active ingredient or acid equivalent basis depending on the compound and included penoxsulam formulated as Grasp® SC, bentazon sodium formulated as Basagran®, triclopyr […] (TEA) salt formulated as Grandstand® R, bispyribac sodium formulated as Regiment® 80WP, imazamox ammonium formulated as Beyond®, benzobicyclon, quinclorac formulated as Facet® 75DF, glyphosate dimethylammonium (DMA) salt formulated as Durango® DMA, glufosinate ammonium formulated as Ignite® 280, fentrazamide formulated as an emulsifiable concentrate (EC), propyrisulfuron formulated as Zeta One®, and indanofan (technical grade material).
Treatment requirements were calculated based upon the rates being tested, the concentration of active ingredient or acid equivalent in the formulation, and a 12 mL application volume at a rate of 187 L/ha.
For treatments comprised of formulated compounds, measured amounts of compounds were placed individually in 25 mL glass vials and diluted in a volume of 1.25% (v/v) Agri-Dex® crop oil concentrate to obtain 12× stock solutions. […]

[2] = test system: SCPJU; experiment: Example VI in-water applied ternary mixtures, greenhouse, transplanted paddy rice weeds; type: in vivo, Schoenoplectus juncoides (Roxb.) Palla
Experimental: Weed seeds or nutlets of the desired test plant species were planted in puddled soil (mud) prepared by mixing a shredded, non-sterilized mineral soil (50.5 percent silt, 25.5 percent clay, and 24 percent sand, with a pH of about 7.6 and an organic matter content of about 2.9 percent) and water at a 1:1 volumetric ratio. The prepared mud was dispensed in 365 mL aliquots into 16-ounce (oz.) non-perforated plastic pots with a surface area of 86.59 square centimeters (cm^2) leaving a headspace of 3 centimeters (cm) in each pot. Mud was allowed to dry overnight prior to planting or transplanting. Rice seeds were planted in Sun Gro MetroMix® 306 planting mixture, which typically has a pH of 6.0 to 6.8 and an organic matter content of about 30 percent, in plastic plug trays. Seedlings at the second or third leaf stage of growth were transplanted into 860 mL of mud contained in 32-oz. non-perforated plastic pots with a surface area of 86.59 cm^2 4 days prior to herbicide application. The paddy was created by filling the headspace of the pots with 2.5 to 3 cm of water. When required to ensure good germination and healthy plants, a fungicide treatment and/or other chemical or physical treatment was applied. The plants were grown for 4-22 days in a greenhouse with an approximate 14 hr. photoperiod which was maintained at about 29° C. during the day and 26° C. during the night. Nutrients were added as Osmocote® (19:6:12, N:P:K+minor nutrients) at 2 g per 16-oz. pot and 4 g per 32-oz. pot. Water was added on a regular basis to maintain the paddy flood, and supplemental lighting was provided with overhead metal halide 1000-Watt lamps as necessary. The plants were employed for testing when they reached the first through fourth true leaf stage.
as §1, with “inhibitor herbicide,” for “inhibitor,”
The ACCase inhibitor component was applied on an active ingredient basis and included cyhalofop-R-butyl formulated as Clincher® G and metamifop formulated as Metamifop EC. […]
Treatment requirements for each compound or herbicidal component were calculated based upon the rates being tested, the concentration of active ingredient or acid equivalent in the formulation, an application volume of 1 mL per component per pot, and an application area of 86.59 cm^2 per pot.
For formulated compounds, a measured amount was placed in an individual 100 or 200 mL glass vial and was dissolved in a volume of 1.25% (v/v) Agri-Dex® crop oil concentrate to obtain application solutions. […]

SMILES | Visual Weed Control (%) - 21 DAA SCPJU Obs ([1]; 2.19 gae/ha) | Visual Weed Control (%) - 21 DAA SCPJU Obs ([1]; 4.38 gae/ha) | Visual Weed Control (%) - 21 DAA SCPJU Obs ([2]; 2.19 gae/ha) | Visual Weed Control (%) - 21 DAA SCPJU Obs ([1]; 35 gai/ha) | Visual Weed Control (%) - 21 DAA SCPJU Obs ([2]; 22.5 gai/ha) | Visual Weed Control (%) - 21 DAA SCPJU Obs ([2]; 45 gai/ha)
COc1c(Cl)ccc(-c2nc(C(=O)OCc3ccccc3)c(Cl)c(N)c2F)c1F [Compound A Benzyl Ester, benzyl ester of 4-amino-3-chloro-5-fluoro-6-(4-chloro-2-fluoro-3-methoxy-phenyl)pyridine-2-carboxylic acid] | 65% | 96% | 77% |  |  | 
CCCCOC(=O)[C@@H](C)Oc1ccc(Oc2ccc(C#N)cc2F)cc1 [Cyhalofop-butyl, butyl(2R)-2-[4-(4-cyano-2-fluorophenoxy)phenoxy]propanoate, reference compound] |  |  |  | 0% | 0% | 0%

Reference: US9232796B2, “Herbicidal compositions comprising 4-amino-3-chloro-5-fluoro-6-(4-chloro-2-fluoro-3-methoxyphenyl) pyridine-2-carboxylic acid or a derivative thereof and acetyl-CoA carboxylase (ACCase) inhibitors” (DOW AGROSCIENCES LLC, priority 2012, dated 2016)
